Counter-ions that a name gives are not always drawn.
Experiments:
serotonergic B65 cells = system: serotonergic B65 cells; design: method as in doi:10.1007/s11419-020-00527-w; details: cited from earlier work
[1] = design: method as in earlier work; details: reported CHI values of the calibration set; cited from earlier work
[2] = system: differentiated SH-SY5Y cells; experiment: Intracellular calcium levels, Fluo-4 AM probe; assay type: cell-based, human; details: positive control, 25 mM
Protocol: Calcium is a vital second messenger for almost every cellular process, including cellular signaling, muscle function, neurotransmitter release, membrane function, and apoptosis. Therefore, its levels inside cells are strictly controlled to maintain cellular homeostasis. The intracellular calcium levels were measured using the cell-permeable Fluo-4 AM probe. Inside the cells, Fluo-4 AM is cleaved to its active and fluorescent form—Fluo-4—which has a high affinity for calcium ions (Ca^2⁺). Thus, its fluorescence emission is directly proportional to the concentration of calcium ions in the intracellular environment.
Therefore, the SH-SY5Y cells were seeded onto 96-well plates (25,000 cells/cm^2) following the previously described seeding and differentiation protocol. […] The average value for negative control (EGTA-treated cells) was subtracted from every other condition and then the minimum average value was subtracted from the maximum average value for every other condition. The results are presented as a percentage relative to the control cells (0 µM). A minimum of 5 independent experiments were conducted in triplicate.

MAO-A and MAO-B = details: rat model; cited from earlier work
[3] = system: differentiated SH-SY5Y cells; design: method as in PMID 37631071, PMID 25900438; details: same in vitro model; cited from earlier work
[4] = system: differentiated SH-SY5Y cells; design: method as in PMID 37631071, PMID 25900438; details: same in vitro model; cited from earlier work; remark: listed apart in the source
[5] = system: differentiated SH-SY5Y cells; details: same experimental conditions; cited from earlier work
[6] = system: differentiated SH-SY5Y cells; experiment: Neutral red (NR) uptake cytotoxicity assay; assay type: cell-based, human
Protocol: The cells were seeded at a density of 25,000 cells/cm^2. To achieve a more mature neuron-like phenotype, SH-SY5Y cells were initially cultured in a complete medium supplemented with RA (10 µM). Subsequently, 3 days post-seeding, TPA (80 nM) was added to each well, and the cells were maintained for another 3 days until use, thus achieving a dopaminergic phenotype. In all the experiments, the cells were used between passages 22 and 28.
The differentiated SH-SY5Y cells (25,000 cells/cm^2) and primary rat cortical cultures (150,000 cells/cm^2) were seeded onto 96-well plates as previously described.
Accordingly, 6 days after seeding (differentiated SH-SY5Y cells) or at 8 DIV (primary cultures), the cells were exposed, for 24 h (37 °C, 5% CO2), to different concentrations of the drugs (0–1000 µM). Thus, the tested concentrations ranged from 0 to 1000 µM for 2C-T-2 and 2C-T-4; 0 to 500 µM for 2C-T-7; 0 to 250 µM for 25T2-NBOMe, and 0 to 100 µM for 25T4-NBOMe and 25T7-NBOMe.
The NR uptake assay is based on the detection of viable cells through the incorporation of the NR dye by the cell’s lysosomes. In brief, after 24 h of exposure to the tested drugs, the differentiated SH-SY5Y cells and primary rat cortical cultures were incubated with NR (50 µg/mL in complete medium) for 90 or 210 min, respectively, at 37 °C, in a 5% CO2-95% air atmosphere. To extract the absorbed dye, an acidified ethanol solution was used, and the absorbance was then measured at 540 nm in a multi-well plate reader (PowerWaveX, BioTek Instruments, Winooski, VT, USA). The cytotoxicity was estimated by the percentage of NR uptake relative to the control cells, and a minimum of 4 independent experiments were conducted in triplicate.

[7] = system: differentiated SH-SY5Y cells; experiment: Total glutathione (tGSH) levels, DTNB-GSH recycling assay; assay type: cell-based, human; details: 100 μM, 24 h; control 100.0%
From the text: Glutathione has a critical role in cellular physiology, playing multiple essential roles in maintaining cellular health and function, including antioxidant defense, detoxification, and cellular signaling. The 5,5′-dithiobis(2-nitrobenzoic acid) (DTNB)-GSH recycling assay was used to measure total GSH (tGSH), which includes the reduced (GSH) and oxidized (GSSG) forms of glutathione. The assay relies on the reaction of GSH with DTNB, producing the yellow-colored 5-thio-2-nitrobenzoic acid (TNB). Thus, the TNB generated is directly proportional to the amount of GSH present in the sample [31].
Thus, the SH-SY5Y cells were seeded onto 6-well plates (25,000 cells/cm^2) following the previously described seeding and differentiation protocol. On the day of the experiment, the cells were exposed to different concentrations of the tested drugs (EC20 and EC50) for 24 h (37 °C, 5% CO2). At the end of the incubation period, the cells were centrifuged (5 min, 250 g, 4 °C). For the analysis of extracellular GSH levels, the supernatants were collected, and proteins precipitated with 30% HClO4 for at least 30 min (4 °C). For the analysis of intracellular GSH levels, after collecting the supernatants, the cells were treated with 5% HClO4 for at least 30 min (4 °C). Subsequently, the acidic samples were collected from the plates and centrifuged (5 min, 16,000× g, 4 °C), and the supernatants were stored until further analysis (−80 °C). To assess protein content, the pellets were resuspended in 1M NaOH, maintained at 4 °C overnight, and stored until further analysis (−20 °C). A Bio-Rad DC™ protein assay kit (Bio-Rad Laboratories, Hercules, CA, USA) was used to analyze protein content, in accordance with the manufacturer’s guidelines.
Before the tGSH quantification, the acidic samples were diluted (1:2) with 5% HClO4, and the diluted samples/standards were neutralized with an ice-cold KHCO3 solution (1:1) and centrifuged (5 min, 16,000× g, 4 °C).
Then, 100 µL of supernatant from each sample/standard was transferred into a 96-well plate and 65 µL of an extemporaneous reagent solution (0.68 mM NADPH and 3.96 mM DTNB prepared in a 7.5 pH phosphate buffer) was added to each well, and the plates were incubated for 15 min at 30 °C. After 15 min, 40 μL of a 10 U/mL glutathione reductase solution was added to each well and the formation of 5-thio-2-nitrobenzoic acid (TNB) was monitored every 10 s for 3 min (kinetic mode) at 415 nm in a multi-well plate reader (PowerWaveX, BioTek Instruments, Winooski, VT, USA).
The GSH levels were standardized to protein content. The results are presented as a percentage relative to the control cells (0 µM). A minimum of 6 independent experiments were conducted, in duplicate.
Glutamate/cysteine ligase (GCL), also recognized as gamma-glutamylcysteine synthetase (γ-GCS), is a key enzyme in the first step of glutathione biosynthesis, as it catalyzes the reaction between glutamate and cysteine to produce γ-glutamylcysteine. […] The SH-SY5Y cells were seeded onto 6-well plates (25,000 cells/cm^2) following the previously described seeding and differentiation protocol. On the day of the experiment, the cells were incubated with BSO (100 µM) for 24 h (37 °C, 5% CO2) and the quantification of GSH intracellular levels was achieved according to the previously described method in Section 2.11.

[8] = system: differentiated SH-SY5Y cells; experiment: Mitochondrial membrane potential, JC-1 dye; assay type: cell-based, human; details: positive control, 100 µM, 2 h
From the text: Mitochondrial membrane potential (ΔΨm) is a valuable parameter that reflects the energy status and functional integrity of cells, and the JC-1 dye is widely used as an indicator of ΔΨm. In healthy cells with high ΔΨm, JC-1 forms J-aggregates that emit red fluorescence. In apoptotic or unhealthy cells with low ΔΨm, JC-1 remains in its monomeric form and emits green fluorescence. The ratio of red to green fluorescence intensity is proportional to the degree of polarization of the mitochondrial membrane (a higher ratio indicates a more polarized membrane).
Thus, the SH-SY5Y cells were seeded onto 24-well plates (25,000 cells/cm^2) following the previously described seeding and differentiation protocol. On the day of the experiment, the cells were exposed to different concentrations of the tested drugs (EC20 and EC50) for 24 h (37 °C, 5% CO2). CCCP (100 µM, 2 h) was used as a positive control for mitochondrial membrane depolarization. At the end of the incubation period, the medium was removed, and the cells were incubated, for 30 min, with 10 µM JC-1 under light protection (37 °C, 5% CO2). Subsequently, the plates were centrifuged (5 min, 300× g, room temperature), the supernatants were rejected, and the cells were washed 2 times with warm HBSS with calcium and magnesium. Fluorescence was recorded at the wavelengths of 485 nm excitation and 535 nm emission for JC-1 monomers and 535 nm excitation and 595 nm emission wavelengths for J-aggregates in a multi-well plate reader (PowerWaveX, BioTek Instruments, Winooski, VT, USA). The results are presented as the percentage of JC-1 red/green fluorescence ratio relative to the control cells, and a minimum of 5 independent experiments were conducted in triplicate.

TK6 cells = system: TK6 cells; design: method as in PMID 33348640; details: 35 µM, 1 h; cited from earlier work

## COc1cc(CCN)c(OC)cc1Cl [2C-C, reference compound]
Serotonergic B65 cells
  mitochondrial production of ROS: no significant alterations

## CCCC(=O)c1ccccc1 [Butyrophenone]
[1]
  CHI0 pH 2.3: 87.3

## Cn1c(=O)c2[nH]cnc2n(C)c1=O [Theophyline, theophylline]
[1]
  CHI0 pH 2.3: 17.9

## NC(=O)N1c2ccccc2C=Cc2ccccc21 [Carbamazepine]
[1]
  CHI0 pH 2.3: 60.42

## [Ca+2].[Cl-].[Cl-] [CaCl2, reference compound]
[2]
  Ca2+ intracellular levels, % of control cells: 141.0%

## CCc1cc(OC)c(CCN)cc1OC [2C-E]
MAO-A and MAO-B
  deamination by MAO-A and MAO-B: both isoenzymes can catalyze the deamination

## COc1ccccc1CNCCc1cc(OC)c(OC)c(OC)c1 [mescaline-NBOMe]
[3]
  tGSH content: significant decrease in the tGSH content
[4]
  ROS production: no ROS production
[5]
  drug-induced cytotoxicity upon MAO inhibition: significant increase in the drug-induced cytotoxicity was observed upon MAO inhibition

## CCCCS(=N)(=O)CCC(N)C(=O)O [BSO, L-buthionine sulfoximine, reference compound]
[6]; 100 μM, 24 h (Figure S2: + 50 μM for an additional 24 h)
  cytotoxicity, NR uptake: No significant cytotoxic effects
[7]
  GSH intracellular levels, % of control cells: 9.2%

## CC(=O)Nc1ccc(O)cc1 [Paracetamol]
[1]
  CHI0 pH 2.3: 18.77

## N#CC(C#N)=NNc1cccc(Cl)c1 [CCCP, carbonyl cyanide 3-chlorophenylhydrazone, reference compound]
[8]
  mitochondrial membrane polarization (JC-1 red/green ratio), % of the control cells: 56.3%

## COc1ccc(N2CCNCC2)cc1 [MeOPP]
[3]
  tGSH content: significant decrease in the tGSH content
[4]
  ROS production: no ROS production

## c1ccc2[nH]ccc2c1 [Indole]
[1]
  CHI0 pH 2.3: 72.1

## COc1cc([N+](=O)[O-])c(OC)cc1CCNCc1ccccc1OC [25N-NBOMe]
[5]
  drug-induced cytotoxicity upon MAO inhibition: significant increase in the drug-induced cytotoxicity was observed upon MAO inhibition

## COc1cc([N+](=O)[O-])c(OC)cc1CCN [2C-N]
[3]
  tGSH content: significant decrease in the tGSH content
[4]
  ROS production: no ROS production
[5]
  drug-induced cytotoxicity upon MAO inhibition: significant increase in the drug-induced cytotoxicity was observed upon MAO inhibition

## C#CCN[C@@H]1CCc2ccccc21 [rasagiline, rasagiline mesylate, reference compound]
[6]; 1 μM, 24 h of exposure
  cytotoxicity, NR uptake: Neither clorgyline nor rasagiline (1 μM) showed significant cytotoxicity

## C#CCN(C)CCCOc1ccc(Cl)cc1Cl [clorgyline, reference compound]
[6]; 1 μM, 24 h of exposure
  cytotoxicity, NR uptake: Neither clorgyline nor rasagiline (1 μM) showed significant cytotoxicity

## FC(F)(F)c1cccc(N2CCNCC2)c1 [TFMPP]
[3]
  tGSH content: significant decrease in the tGSH content
[4]
  ROS production: no ROS production

## c1cc2c(cc1CN1CCNCC1)OCO2 [MDBP]
[3]
  tGSH content: significant decrease in the tGSH content
[4]
  ROS production: no ROS production

## COc1cc2c(c(OC)c1OC)-c1ccc(OC)c(=O)cc1[C@@H](NC(C)=O)CC2 [Colchicine]
[1]
  CHI0 pH 2.3: 43.9

## COc1cc(CCN)c(OC)cc1C [2C-D]
MAO-A and MAO-B
  deamination by MAO-A and MAO-B: both isoenzymes can catalyze the deamination

## COc1cc(CCNCc2ccccc2OC)c(OC)cc1Cl [25C-NBOMe]
[3]
  tGSH content: significant decrease in the tGSH content
[4]
  ROS production: no ROS production

## COc1cc(CCN)cc(OC)c1OC [mescaline]
[3]
  tGSH content: significant decrease in the tGSH content
[4]
  ROS production: no ROS production
[5]
  drug-induced cytotoxicity upon MAO inhibition: significant increase in the drug-induced cytotoxicity was observed upon MAO inhibition

## c1ccc(CN2CCNCC2)cc1 [BZP]
[3]
  tGSH content: significant decrease in the tGSH content
[4]
  ROS production: no ROS production

## c1ccc2[nH]cnc2c1 [Benzimidazole]
[1]
  CHI0 pH 2.3: 6.3

## Cn1c(=O)c2c(ncn2C)n(C)c1=O [Caffeine, caffeine]
[1]
  CHI0 pH 2.3: 23.41

## CCC(=O)c1ccccc1 [Propiophenone]
[1]
  CHI0 pH 2.3: 77.4

## COc1ccc(OC)c(CCN)c1 [2C-H]
TK6 cells
  increase in ROS levels: two-fold

Source: paper PMC11204507, “Mechanistic Insights into the Neurotoxicity of 2,5-Dimethoxyphenethylamines (2C) and Corresponding N-(2-methoxybenzyl)phenethylamine (NBOMe) Drugs” (Journal of Xenobiotics, 2024)
